Laboratory results: patent publication US20240228469A1, “PCSK9 INHIBITORS AND METHODS OF USE THEREOF” (AstraZeneca AB, priority 2022, published 2024)

Assays:
PCSK9 [1] = molecular target: T1, PCSK9 (Homo sapiens, UniProt Q8NBP7, G670E/V474I); experiment: Assay 3 PCSK9 LDL-C uptake assay in HepG2 cells; type: cell-based; parameters: TEV site (C); His6 (C); host or cells: added to HepG2 (ATCC #HB-8065); conditions: 125 nM PCSK9, pHrodo Red-LDL, read-out: Assay 3 LDL uptake potency
Description: This assay measures for PCSK9 antagonist activity based on a test compound's capacity to restore LDL-C-uptake in HepG2 cells. The assay is based on exogenous PCSK9 and LDL-C complexed with a pH-sensitive dye. Outside the cells, at neutral pH, the pHrodo Red-LDL is dimly fluorescent but upon LDLR mediated endocytosis it fluoresces brightly. PCSK9 traffics the LDLR to intracellular degradation and reduces uptake of LDL-C. Inhibition of PCSK9 reduces LDLR degradation and the increased LDL-C uptake is quantified by fluorescence microscopy.
• Cell medium: MEM supplemented with 10% FBS, 1×NEAA and Sodium Pyruvate • Assay medium: OptiMem supplemented with penicillin/streptomycin • Cells: HepG2 (ATCC #HB-8065)
• 1. Cryopreserved HepG2 cells were thawed in assay medium and centrifuged for 5 min at 250 g. Supernatant was discarded and the cell pellet resuspended in cell medium and counted with a Nucleocounter. Cells were again centrifuged 5 min at 250 g and the pellet was resuspended to 500000 cells/mL in assay medium. • 2. 20 μL of above cell mix was dispensed into black μclear TC treated 384 well plates with Multidrop Combi and left at room temperature for 20 minutes. • 3. Plates were incubated at 37° C., 5% CO2 for 24 h
• 1. Test compounds were prepared in concentration response in DMSO with a half-log dilution factor in DMSO in Echo 384 LDV plates starting at 10 mM. • 2. 30 nL of above test compounds were dispensed with Echo 655 to cells for a top concentration of 10 μM • 3. 10 μL PCSK9 in assay medium was dispensed to cells with Multidrop Combi for 125 nM final concentration in the wells. • 4. Plates were incubated at 37° C., 5% CO2 for 24 h
• 1. 10 μL pHrodo Red-LDL in assay medium was dispensed to cells with Multidrop Combi for […] • 2. Plates were incubated at 37° C., 5% CO2 and imaged with the Incucyte S3 after 4 h and 24 h
Image data was processed using Incucyte 2021, a software to identify cells and red fluorescent intensity. Screener was used to further process data. Data was normalized as % effect of the signal between median values of the on-plate controls of DMSO and 100 nM Evolocumab according to the formula % effect=−100*(x−DMSO)/(Evolocumab−DMSO) where x equals the measured signal. Concentration response data of the normalized values were fitted using a four-parameter logistic fit.

PCSK9 [2] = molecular target: T1, PCSK9; experiment: biochemical
[3] = molecular target: GSK3β (Glycogen synthase kinase-3 beta) (Homo sapiens, UniProt P49841); experiment: Assay 6 GSK3β assay (ThermoFisher Z-Lyte FRET); type: biochemical; conditions: ATP Conc: 10 μM, geometric mean; read-out: Assay 6 (GSK3β FRET-Z-Lyte Cr) GMean IC50
Sequence of GSK3β (Glycogen synthase kinase-3 beta) (P49841 whole entry): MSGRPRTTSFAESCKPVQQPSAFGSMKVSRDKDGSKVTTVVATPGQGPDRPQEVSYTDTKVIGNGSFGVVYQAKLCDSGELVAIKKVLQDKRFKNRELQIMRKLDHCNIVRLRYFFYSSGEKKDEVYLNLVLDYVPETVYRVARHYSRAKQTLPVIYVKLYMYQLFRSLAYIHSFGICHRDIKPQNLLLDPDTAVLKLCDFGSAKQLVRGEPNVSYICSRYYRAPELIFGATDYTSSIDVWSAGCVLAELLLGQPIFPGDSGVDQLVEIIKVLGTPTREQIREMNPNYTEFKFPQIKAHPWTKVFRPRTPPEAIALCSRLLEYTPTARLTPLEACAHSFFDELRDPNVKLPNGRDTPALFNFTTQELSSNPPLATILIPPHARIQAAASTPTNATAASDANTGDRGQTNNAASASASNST
Method: This assay measures the activity of the compounds at GSK33 (Glycogen synthase kinase-3 beta).
The test compounds were screened in 1% DMSO (final) in the well. For 10 point titrations, 3-fold serial dilutions are conducted from the starting concentration of 10 PM.
Bar-coded Corning, low volume NBS, black 384-well plate • 1. 2.5 μL—4× Test Compound or 100 nL 100× plus 2.4 μL kinase buffer • 2. 5 μL—2× Peptide/Kinase Mixture • 3. 2.5 μL—4×ATP Solution • 4. 30-second plate shake • 5. 60-minute Kinase Reaction incubation at room temperature • 6. 5 μL—Development Reagent Solution • 7. 30-second plate shake • 8. 60-minute Development Reaction incubation at room temperature • 9. Read on fluorescence plate reader and analyse the data
In step 2, the 2×GSK3β (GSK3 beta)/Ser/Thr (Glycogen synthase kinase-3 beta/Serine/Threonine) 09 mixture is prepared in 50 mM HEPES (4-(2-hydroxyethyl)-1-piperazineethanesulfonic acid) pH 7.5, 0.01% BRIJ-35, 10 mM MgCl2, 1 mM EGTA (egtazic acid). The final 10 μL Kinase Reaction consists of 0.22-0.92 ng GSK3β (GSK3 beta) and 2 PM Ser/Thr 09 in 50 mM HEPES pH 7.5, 0.01% BRIJ-35, 10 mM MgCl2, 1 mM EGTA.
In step 3 the ATP Solution is diluted to a 4× working concentration in Kinase Buffer (50 mM HEPES pH 7.5, 0.01% BRIJ-35, 10 mM MgCl2, 1 mM EGTA).
In Step 6 the Development Reagent is diluted 1:512 in Development Buffer (10× Novel PKC Lipid Mix: 2 mg/mL Phosphatidyl Serine, 0.2 mg/mL DAG in 20 mM HEPES, pH 7.4, 0.3% CHAPS).
SelectScreen® Kinase Profiling Service uses XLfit from IDBS. The dose response curve is curve fit to model number 205 (sigmoidal dose-response model).

[4] = molecular target: T2, potassium ion channel hERG (Homo sapiens, UniProt Q12809); experiment: Assay 5 hERG assay (patch clamp, CHO cells over-expressing hERG); type: cell-based; conditions: SyncroPatch 384PE, room temperature, geometric mean, read-out: Assay 5 (hERG Hu CHO if EPh CR-Syncro) GMean IC50
T2 construct: expressed in transfected cells; host or cells: Chinese hamster ovary K1 (CHO)
T2 sequence (Q12809 whole entry): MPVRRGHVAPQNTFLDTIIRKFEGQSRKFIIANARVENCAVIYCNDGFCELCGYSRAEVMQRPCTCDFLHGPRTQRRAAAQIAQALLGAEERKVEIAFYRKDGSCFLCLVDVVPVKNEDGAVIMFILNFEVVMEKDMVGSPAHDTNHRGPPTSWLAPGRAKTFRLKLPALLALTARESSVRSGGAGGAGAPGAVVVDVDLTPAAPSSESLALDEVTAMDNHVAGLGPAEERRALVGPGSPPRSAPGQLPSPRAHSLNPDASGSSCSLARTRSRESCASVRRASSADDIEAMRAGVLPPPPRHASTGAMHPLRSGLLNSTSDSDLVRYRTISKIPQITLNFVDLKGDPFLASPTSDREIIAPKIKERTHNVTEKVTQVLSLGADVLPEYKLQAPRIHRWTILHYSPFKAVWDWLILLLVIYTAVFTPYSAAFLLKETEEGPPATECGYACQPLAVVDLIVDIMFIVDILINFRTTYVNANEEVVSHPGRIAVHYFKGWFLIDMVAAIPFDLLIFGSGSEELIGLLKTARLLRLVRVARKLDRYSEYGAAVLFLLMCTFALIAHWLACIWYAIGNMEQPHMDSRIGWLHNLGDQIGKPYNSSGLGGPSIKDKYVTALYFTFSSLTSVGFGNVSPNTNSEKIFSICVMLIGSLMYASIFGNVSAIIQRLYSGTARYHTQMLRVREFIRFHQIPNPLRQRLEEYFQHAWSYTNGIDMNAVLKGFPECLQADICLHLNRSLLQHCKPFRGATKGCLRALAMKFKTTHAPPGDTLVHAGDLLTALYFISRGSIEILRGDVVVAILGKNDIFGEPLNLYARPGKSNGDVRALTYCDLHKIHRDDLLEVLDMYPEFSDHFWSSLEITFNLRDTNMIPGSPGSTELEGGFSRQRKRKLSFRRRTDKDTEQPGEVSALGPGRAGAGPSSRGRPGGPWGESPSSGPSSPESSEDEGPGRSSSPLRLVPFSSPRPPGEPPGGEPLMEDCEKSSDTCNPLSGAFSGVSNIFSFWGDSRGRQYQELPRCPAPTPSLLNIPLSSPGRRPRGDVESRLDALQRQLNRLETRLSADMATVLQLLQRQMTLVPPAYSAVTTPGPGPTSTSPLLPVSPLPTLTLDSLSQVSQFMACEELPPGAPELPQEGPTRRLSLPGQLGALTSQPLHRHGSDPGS
Method: This assay (human Ether-d-go-go-Related Gene) measures activity of the compounds at the potassium ion channel hERG (human Ether-d-go-go-Related Gene).
Experiments were performed on the SyncroPatch 384PE high throughput patch clamp platform at room temperature and medium resistance chips with 4 patch holes per site. Chinese hamster ovary K1 (CHO) cell lines over-expressing the ion channel of choice (hERG) were used in assay-ready format and kept in liquid nitrogen or were used from live culture. Cells were either thawed and diluted in HBSS or were detached from flasks and resuspended in HBSS. HBSS comprised 140 mM NaCl, 4 mM KCl, 10 mM HEPES and 5 mM Glucose (pH7.4). The internal patch clamp solution was KF 120 mM, KCl 20 mM, HEPES 10 mM, EGTA 10 mM, and 25 PM Escin (pH 7.2). After the sealing process was complete, the external solution was exchanged for external patch clamp solution comprising NaCl 80 mM, KCl 4 mM, HEPES 10 mM, CaCl2 2 mM, MgCl2 1 mM, glucose 5 mM, and NMDG 60 mM (pH 7.4). All solutions were stored at room temperature, except Escin, which was stored at 4° C. All test compounds were dispensed in greiner-bio 384 well plates and tested in a 6 point cumulative assay (final DMSO concentration 0.33%). Only wells that passed previously agreed acceptance criteria for this platform were used in this analysis (30 MegaOhm seal resistance, Z prime >0.4 and current size >0.2 nA). […]

T1 sequence (Q8NBP7 with tags, fused parts or gaps V474I/G670E): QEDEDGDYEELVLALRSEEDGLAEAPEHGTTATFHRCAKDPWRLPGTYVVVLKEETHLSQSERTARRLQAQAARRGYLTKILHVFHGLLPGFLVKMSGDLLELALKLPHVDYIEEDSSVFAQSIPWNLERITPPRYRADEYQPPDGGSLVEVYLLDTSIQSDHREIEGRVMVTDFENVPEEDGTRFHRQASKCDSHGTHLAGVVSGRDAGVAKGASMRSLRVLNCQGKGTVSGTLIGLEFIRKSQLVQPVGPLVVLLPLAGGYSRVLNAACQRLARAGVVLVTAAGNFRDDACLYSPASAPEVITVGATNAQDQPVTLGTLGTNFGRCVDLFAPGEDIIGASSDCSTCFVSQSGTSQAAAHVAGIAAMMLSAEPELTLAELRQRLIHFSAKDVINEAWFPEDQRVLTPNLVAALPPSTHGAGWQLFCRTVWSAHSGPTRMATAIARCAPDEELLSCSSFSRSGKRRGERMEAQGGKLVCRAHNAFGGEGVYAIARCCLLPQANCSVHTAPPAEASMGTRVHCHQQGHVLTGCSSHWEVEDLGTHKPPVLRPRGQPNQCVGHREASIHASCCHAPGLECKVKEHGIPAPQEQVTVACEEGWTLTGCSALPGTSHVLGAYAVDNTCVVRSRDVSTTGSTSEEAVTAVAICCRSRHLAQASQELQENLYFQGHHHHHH

## Cc1cnc(N[C@H]2CC[C@H](Nc3ccc(-n4cccc(C)c4=O)cn3)C2)nn1 (racemic) [Example 173, rel-3-Methyl-6′-(((1 R,3R)-3-((6-methyl-1,2,4-triazin-3-yl)amino)cyclopentyl)amino)-2H-[1,3′-bipyridin]-2-one]
PCSK9 [1]
  EC50: 100 nM
PCSK9 [2]
  IC50: 4.2 nM
[3]
  IC50: 1950 nM
[4]
  IC50: > 40100 nM

## COc1ccc(=O)n(-c2ccc(NCC(CCO)CNc3ncc(C)nn3)nc2)c1 (racemic) [Example 317, rac-6′-((4-Hydroxy-2-(((6-methyl-1,2,4-triazin-3-yl)amino)methyl)butyl)amino)-5-methoxy-2H-[1,3′-bipyridin]-2-one]
PCSK9 [1]
  EC50: > 800 nM
PCSK9 [2]
  IC50: 4430 nM
[4]
  IC50: > 40000 nM

## O=c1ccc(-c2c[nH]nn2)cn1-c1ccc(N[C@H]2CC[C@H](Nc3ncc(C4CC4)nn3)C2)nc1 [Example 122, 6′-(((1S,3S)-3-((6-Cyclopropyl-1,2,4-triazin-3-yl)amino)cyclopentyl)amino)-5-(1H-1,2,3-triazol-4-yl)-2H-[1,3′-bipyridin]-2-one]
PCSK9 [1]
  EC50: 100 nM
PCSK9 [2]
  IC50: 1.4 nM
[3]
  IC50: 6170 nM
[4]
  IC50: > 40100 nM

## O=c1ccc(-c2cn[nH]c2)cn1-c1ccc(N[C@H]2CC[C@H](Nc3ncc(C4CC4)nn3)C2)nc1 [Example 123, 6′-(((1S,3S)-3-((6-Cyclopropyl-1,2,4-triazin-3-yl)amino)cyclopentyl)amino)-5-(1H-pyrazol-4-yl)-2H-[1,3′-bipyridin]-2-one]
PCSK9 [1]
  EC50: 100 nM
PCSK9 [2]
  IC50: 1.4 nM
[3]
  IC50: 8840 nM
[4]
  IC50: > 40100 nM

## O=c1ccc(-c2nnn[nH]2)cn1-c1ccc(N[C@H]2CC[C@H](Nc3ncc(C4CC4)nn3)C2)nc1 [Example 124, 6′-(((1S,3S)-3-((6-Cyclopropyl-1,2,4-triazin-3-yl)amino)cyclopentyl)amino)-5-(1H-tetrazol-5-yl)-2H-[1,3′-bipyridin]-2-one]
PCSK9 [1]
  EC50: 100 nM
PCSK9 [2]
  IC50: 1 nM
[3]
  IC50: 1070 nM
[4]
  IC50: > 40100 nM

## Cn1c(=O)n(-c2ccc(N[C@H]3CC[C@H](Nc4ncc(C5CC5)nn4)C3)nc2)c2cc(P(C)(C)=O)ccc21 [Example 125, 3-(6-(((1S,3S)-3-((6-Cyclopropyl-1,2,4-triazin-3-yl)amino)cyclopentyl)amino)pyridin-3-yl)-5-(dimethylphosphoryl)-1-methyl-1,3-dihydro-2H-benzo[d]imidazol-2-one]
PCSK9 [1]
  EC50: 100 nM
PCSK9 [2]
  IC50: 2.7 nM
[3]
  IC50: > 10000 nM
[4]
  IC50: > 40100 nM

## Cc1ccc(=O)n(-c2ccc(N[C@H]3CC[C@H](Nc4ncc(C)nn4)C3)nc2)c1 [Example 130, 5-Methyl-6′-(((1S,3S)-3-((6-methyl-1,2,4-triazin-3-yl)amino)cyclopentyl)amino)-2H-[1,3′-bipyridin]-2-one]
PCSK9 [1]
  EC50: 200 nM
PCSK9 [2]
  IC50: 14 nM
[3]
  IC50: 5700 nM
[4]
  IC50: > 40100 nM

## Cc1cnc(N[C@H]2CC[C@H](Nc3ccc(-n4cccc(C#N)c4=O)cn3)C2)nn1 [Example 136, 6′-(((1S,3S)-3-((6-Methyl-1,2,4-triazin-3-yl)amino)cyclopentyl)amino)-2-oxo-2H-[1,3′-bipyridine]-3-carbonitrile]
PCSK9 [1]
  EC50: 200 nM
PCSK9 [2]
  IC50: 3 nM
[3]
  IC50: > 10000 nM
[4]
  IC50: > 40100 nM

## Cc1cnc(N[C@H]2CC[C@H](Nc3ccc(-n4cccc(F)c4=O)cn3)C2)nn1 [Example 137, 3-Fluoro-6′-(((1S,3S)-3-((6-methyl-1,2,4-triazin-3-yl)amino)cyclopentyl)amino)-2H-[1,3′-bipyridin]-2-one]
PCSK9 [1]
  EC50: 700 nM
PCSK9 [2]
  IC50: 10 nM
[3]
  IC50: 3520 nM
[4]
  IC50: > 40100 nM

## Cc1cnc(N[C@H]2CC[C@H](Nc3ccc(-n4cccc(OC(F)(F)F)c4=O)cn3)C2)nn1 [Example 138, 6′-(((1S,3S)-3-((6-Methyl-1,2,4-triazin-3-yl)amino)cyclopentyl)amino)-3-(trifluoromethoxy)-2H-[1,3′-bipyridin]-2-one]
PCSK9 [1]
  EC50: 200 nM
PCSK9 [2]
  IC50: 4 nM
[3]
  IC50: > 10000 nM
[4]
  IC50: > 40100 nM

## COc1cccn(-c2ccc(N[C@H]3CC[C@H](Nc4ncc(C(=O)NC5COC5)nn4)C3)nc2)c1=O [Example 153, 3-(((1S,3S)-3-((3-Methoxy-2-oxo-2H-[1,3′-bipyridin]-6′-yl)amino)cyclopentyl)amino)-N-(oxetan-3-yl)-1,2,4-triazine-6-carboxamide]
PCSK9 [1]
  EC50: 100 nM
PCSK9 [2]
  IC50: 3.3 nM
[3]
  IC50: > 10000 nM
[4]
  IC50: > 40100 nM

## COc1ccc(=O)n(-c2ccc(N[C@H]3CC[C@H](Nc4ncc(C(=O)NC5COC5)nn4)C3)nc2)c1 [Example 154, 3-(((1S,3S)-3-((5-Methoxy-2-oxo-2H-[1,3′-bipyridin]-6′-yl)amino)cyclopentyl)amino)-N-(oxetan-3-yl)-1,2,4-triazine-6-carboxamide]
PCSK9 [1]
  EC50: 200 nM
PCSK9 [2]
  IC50: 14 nM
[3]
  IC50: 3900 nM
[4]
  IC50: > 40100 nM

## Cc1cccn(-c2ccc(N[C@H]3CC[C@H](Nc4ncc(C(=O)NC5COC5)nn4)C3)nc2)c1=O [Example 155, 3-(((1S,3S)-3-((3-Methyl-2-oxo-2H-[1,3′-bipyridin]-6′-yl)amino)cyclopentyl)amino)-N-(oxetan-3-yl)-1,2,4-triazine-6-carboxamide]
PCSK9 [1]
  EC50: 100 nM
PCSK9 [2]
  IC50: 2.7 nM
[3]
  IC50: > 10000 nM
[4]
  IC50: > 40100 nM

## Cc1ccc(=O)n(-c2ccc(N[C@H]3CC[C@H](Nc4ncc(C(=O)NC5COC5)nn4)C3)nc2)c1 [Example 156, 3-(((1S,3S)-3-((5-Methyl-2-oxo-2H-[1,3′-bipyridin]-6′-yl)amino)cyclopentyl)amino)-N-(oxetan-3-yl)-1,2,4-triazine-6-carboxamide]
PCSK9 [1]
  EC50: 100 nM
PCSK9 [2]
  IC50: 14 nM
[3]
  IC50: > 10000 nM
[4]
  IC50: > 40100 nM
